Some test systems named below: DU-145; MCF7; ACHN; SK-MEL-5; HOP-62; NCI-H23; M14; SF-295; LOX IMVI; OVCAR-5; OVCAR-3; RXF 393; HCC 2998; IGROV-1; HOP-92; SNB-19; SW-620; NCI/ADR-RES; OVCAR-4; NCI-H522.
Experiment in all cases: NCI-60 cell line screen, 48 h

Counter-ions that a name gives are not always drawn.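 A five-concentration, 48-hour dose response in 96-well plates underlies each endpoint, interpolated linearly between surrounding concentrations. GI50 marks 50% less growth.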 Activity calls are given as the source filed them. Rule as the data show it: active = GI50 up to about 1.1 µM and inactive = higher.

For the molecule `O=C(C=P(c1ccccc1)(c1ccccc1)c1ccccc1)c1ccccc1-c1ccccc1C(=O)C=P(c1ccccc1)(c1ccccc1)c1ccccc1`, the GI50 with DU-145 was 0.0184 µM (active); with MCF7, < 0.01 µM (active); with ACHN, 0.0272 µM (active); with SK-MEL-5 it was 0.0111 µM (active); in the assay on HOP-62 it was 0.0311 µM (active); in the assay on NCI-H23, 0.018 µM (active). The GI50 in the assay with M14 is 0.0352 µM (active); in the assay on SF-295, 0.0269 µM (active); with LOX IMVI it was 0.018 µM (active); with OVCAR-5 it was 0.0462 µM (active); with OVCAR-3, < 0.01 µM (active); with RXF 393 it was 0.0208 µM (active). The GI50 in the assay on HCC 2998 is 0.0319 µM (active); in the assay on IGROV-1 it was < 0.015 µM (active); in the assay on HOP-92 it was 0.0127 µM (active); in the assay on SNB-19, 0.0288 µM (active); in the assay with SW-620 it was 0.027 µM (active); with NCI/ADR-RES, 0.373 µM (active). Further, the GI50 was 0.029 µM (active) with OVCAR-4 and 0.014 µM (active) with NCI-H522.

With `N#CC1=C(S)N(C2OC(CO)C(O)C(O)C2O)C(c2ccccc2)=CC1c1ccco1` (stereo not drawn), the GI50 in the assay with DU-145 is > 100 µM (inactive); in the assay with MCF7 it was 62.2 µM (inactive); in the assay on ACHN it was > 10 µM (inactive); with SK-MEL-5 it was 26.9 µM (inactive); with HOP-62, 44.6 µM (inactive); in the assay with NCI-H23, 59 µM (inactive). Also, the GI50 in the assay on M14 was 50.5 µM (inactive); with SF-295 it was 24.6 µM (inactive); with LOX IMVI, 23.2 µM (inactive); in the assay with OVCAR-5, > 100 µM (inactive); with OVCAR-3, > 100 µM (inactive); with RXF 393, 44 µM (inactive). Moreover, the GI50 in the assay on HCC 2998 was 28.4 µM (inactive); with IGROV-1, > 100 µM (inactive); in the assay with HOP-92 it was 32.6 µM (inactive); with SNB-19, 69.5 µM (inactive); with NCI/ADR-RES, > 100 µM (inactive); with OVCAR-4 it was > 100 µM (inactive). Also, in the assay with NCI-H522, the GI50 is 35.7 µM (inactive).

`CC(=O)OC1CC[C@@]2(C)C(CC[C@]3(C)C2CC=C2[C@@H]4C(C)[C@H](C)CCC4(C)CCC23C)[C@@]1(C)C(=O)O` (stereo partly drawn): the GI50 is 17.9 µM (inactive) in the assay on DU-145; 16 µM (inactive) in the assay on MCF7; 18.2 µM (inactive) in the assay with ACHN; 17.4 µM (inactive) with SK-MEL-5; 20.7 µM (inactive) in the assay on HOP-62; 22.5 µM (inactive) in the assay with NCI-H23. Moreover, the GI50 with M14 was 22.3 µM (inactive); in the assay with SF-295, 17.6 µM (inactive); with LOX IMVI, 20.9 µM (inactive); in the assay with OVCAR-5, 18 µM (inactive); in the assay with OVCAR-3, 18.9 µM (inactive); in the assay on RXF 393 it was 21.7 µM (inactive). In addition, the GI50 is 19.1 µM (inactive) with HCC 2998; 20.6 µM (inactive) in the assay on IGROV-1; 21.2 µM (inactive) in the assay on HOP-92; 22.9 µM (inactive) with SNB-19; 21.9 µM (inactive) in the assay on SW-620; 17 µM (inactive) in the assay on NCI/ADR-RES. Besides, the GI50 in the assay on OVCAR-4 is 26 µM (inactive); in the assay with NCI-H522, 19.2 µM (inactive).

Consider `N[C@@H](Cc1ccc(N(CCCl)CCCl)cc1)C(=O)O` [MELPHALAN HYDROCHLORIDE], for which the GI50 with DU-145 was 47.2 µM (inactive); in the assay with MCF7, 11.1 µM (inactive); in the assay with ACHN, 9.57 µM (inactive); in the assay with SK-MEL-5 it was 38.3 µM (inactive); in the assay on HOP-62, 15.4 µM (inactive); in the assay on NCI-H23 it was 23 µM (inactive). Also, the GI50 in the assay with M14 is 24.5 µM (inactive); in the assay on SF-295 it was 20 µM (inactive); in the assay with LOX IMVI, 20.3 µM (inactive); with OVCAR-5, 47.4 µM (inactive); in the assay with OVCAR-3, 42.3 µM (inactive); in the assay on RXF 393, 28.9 µM (inactive). The GI50 was 43.3 µM (inactive) with HCC 2998; 36.8 µM (inactive) in the assay with HOP-92; 51.6 µM (inactive) in the assay on SNB-19; 33.6 µM (inactive) in the assay with SW-620; 40.7 µM (inactive) in the assay with NCI/ADR-RES; 40 µM (inactive) with OVCAR-4. Further, the GI50 with NCI-H522 is 25.2 µM (inactive).

The values are drawn from ChEMBL document CHEMBL1201862, “PubChem BioAssay data set” (2004).
